Literature values as cited in PMC9762682, “Tocotrienols: Exciting Biological and Pharmacological Properties of Tocotrienols and Naturally Occurring Compounds, Part II” (Annals of clinical case reports, 2022).
Read-outs that look alike come from different tables or passages of the source. Marks after values point to notes of the source that are not given here.

Key:
TNF-α [1] = conditions: LPS-induced macrophages of wild type (C57BL/6) control group
TNF-α [2] = conditions: LPS-induced macrophages of PPAR-α knockout female mice
Hela cells = system: Hela cells; design: method as in PMID 29606130; value at effective dose: unit not given here; conditions: for effective dose / percentage of control at effective dose / value at effective dose: 48 h;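 for IC50: anti-proliferation of cancer cells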
Liver cancer cells = system: Liver cancer cells; design: method as in PMID 29606130; value at effective dose: unit not given here; conditions: for effective dose / percentage of control at effective dose / value at effective dose: 48 h
Pancreas cancer cells = system: Pancreas cancer cells; design: method as in PMID 29606130; value at effective dose: unit not given here; conditions: for effective dose / percentage of control at effective dose / value at effective dose: 48 h
Prostate cancer cells = system: Prostate cancer cells; design: method as in PMID 29606130; value at effective dose: scale not given here; conditions: for effective dose / percentage of control at effective dose / value at effective dose: 48 h;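 for IC50: anti-proliferation of cancer cells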
Breast cancer cells = system: Breast cancer cells; design: method as in PMID 29606130; value at effective dose: unit not given here;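 for IC50: anti-proliferation of cancer cells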
Lung cancer cells = system: Lung cancer cells; design: method as in PMID 29606130; value at effective dose: unit not given here
Melanoma cells = system: Melanoma cells; design: method as in PMID 29606130
B-Lymphocyte cells = system: B-Lymphocyte cells; design: method as in PMID 29606130; value at effective dose: unit not given here;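 for IC50: anti-proliferation of cancer cells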
T-cells (Jurkat) = system: T-cells (Jurkat); design: method as in PMID 29606130; value at effective dose: unit not given here
[3] = design: method as in ref 14 = [14]; PMID 27493840; doi:10.4172/2155-9880.1000434; 14. Qureshi AA , Khan DA , Saleem S , Silswal N , Trias AM , Tan B , Pharmacokinetics and bioavailability of Annatto δ-tocotrienol in healthy fed subjects . J Clin Exp Cardiol . 2015; 6 : 11 . 10.417; conditions: for time of appearance in the plasma: after δ-tocotrienol administration to well-fed subjects; for Elimination of Half-life time (t1/2) / Elimination rate constant (ke) / Plasma Peak Concentration (Cmax) / Time to achieve plasma peak (Tmax): healthy fed subjects
[4] = design: method as in ref 16 = [16]; PMID 27493840; doi:10.4172/2155-9880.1000434; 16. Qureshi AA , Khan DA , Silswal N , Saleem S , Qureshi N . Evaluation of pharmacokinetics and bioavailability of higher doses of δ-tocotrienol in healthy fed humans . J Clin Exp Cardiol . 2016; 7
[5] = system: α-Tocopherol Transfer Protein (α-TTP); design: method as in PMID 11271854, PMID 8632210
[6] = plasma tocol after single 125 mg δ-tocotrienol dose
[7] = plasma tocol after single 250 mg δ-tocotrienol dose
[8] = plasma tocol after single 500 mg δ-tocotrienol dose
[9] = 0 Hr., single dose 750 mg δ-tocotrienol
[10] = 0 Hr., single dose 1000 mg δ-tocotrienol
[11] = 1 hr., single dose 750 mg δ-tocotrienol
[12] = 1 hr., single dose 1000 mg δ-tocotrienol
[13] = 2 hr., single dose 750 mg δ-tocotrienol
[14] = 2 hr., single dose 1000 mg δ-tocotrienol
[15] = 4 hr., single dose 750 mg δ-tocotrienol
[16] = 4 hr., single dose 1000 mg δ-tocotrienol
[17] = 6 hr., single dose 750 mg δ-tocotrienol
[18] = 6 hr., single dose 1000 mg δ-tocotrienol
[19] = 8 hr., single dose 750 mg δ-tocotrienol
[20] = 8 hr., single dose 1000 mg δ-tocotrienol
[21] = single dose 1000 mg δ-tocotrienol
[22] = plasma tocol after single dose 750 mg δ-tocotrienol
[23] = plasma tocol after single dose 1000 mg δ-tocotrienol
[24] = serum, two capsules/d for 24-weeks

Cc1cc2nc3c(=O)[nH]c(=O)nc-3n(C[C@H](O)[C@H](O)[C@H](O)CO)c2cc1C [(−) Riboflavin, Riboflavin]
effect on secretion of TNF-α (TNF-α [1]): inhibition | effect on secretion of TNF-α (TNF-α [2]): activation | effective dose (Hela cells): 40 µM | percentage of control at effective dose (Hela cells): 64% | value at effective dose (Hela cells): 21.0 ± 1.0 | effective dose (Liver cancer cells): 80 µM | percentage of control at effective dose (Liver cancer cells): 91% | value at effective dose (Liver cancer cells): 74.0 ± 2.0 | effective dose (Pancreas cancer cells): 40 µM | percentage of control at effective dose (Pancreas cancer cells): 67% | value at effective dose (Pancreas cancer cells): 40.0 ± 2.0 | IC50 (Prostate cancer cells): 80 µM | percentage of control at IC50 dose (Prostate cancer cells): 55% | effective dose (Prostate cancer cells): 40 µM | percentage of control at effective dose (Prostate cancer cells): 61% | value at effective dose (Prostate cancer cells): 20.0 ± 2.0 | effective dose (Breast cancer cells): 80 µM | percentage of control at effective dose (Breast cancer cells): 61% | value at effective dose (Breast cancer cells): 12.7 ± 1.5 | effective dose (Lung cancer cells): 10 µM | percentage of control at IC50 dose (Lung cancer cells): 28% | percentage of control at effective dose (Lung cancer cells): 23% | value at effective dose (Lung cancer cells): 7.7 ± 2.1 | effective dose (Melanoma cells): 40 µM | percentage of control at effective dose (Melanoma cells): 91% | IC50 (B-Lymphocyte cells): 80 µM | effective dose (B-Lymphocyte cells): 20 µM | percentage of control at IC50 dose (B-Lymphocyte cells): 55% | percentage of control at effective dose (B-Lymphocyte cells): 69% | value at effective dose (B-Lymphocyte cells): 19.3 ± 3.1 | effective dose (T-cells (Jurkat)): 20 µM | percentage of control at effective dose (T-cells (Jurkat)): 32% | value at effective dose (T-cells (Jurkat)): 142.0 ± 4.4

O=c1c(O)c(-c2ccc(O)c(O)c2)oc2cc(O)cc(O)c12 [Quercetin]
effect on secretion of TNF-α (TNF-α [1]): inhibition | effect on secretion of TNF-α (TNF-α [2]): activation | IC50 (Hela cells): 10 µM | percentage of control at IC50 dose (Hela cells): 51% | effective dose (Hela cells): 40 µM | percentage of control at effective dose (Hela cells): 38% | value at effective dose (Hela cells): 21.3 ± 1.5 | IC50 (Liver cancer cells): 20 µM | percentage of control at IC50 dose (Liver cancer cells): 32% | effective dose (Liver cancer cells): 40 µM | percentage of control at effective dose (Liver cancer cells): 29% | value at effective dose (Liver cancer cells): 24.0 ± 2.0 | IC50 (Pancreas cancer cells): 40 µM | percentage of control at IC50 dose (Pancreas cancer cells): 45% | effective dose (Pancreas cancer cells): 40 µM | percentage of control at effective dose (Pancreas cancer cells): 26% | value at effective dose (Pancreas cancer cells): 11.7 ± 0.6 | IC50 (Prostate cancer cells): 10 µM | percentage of control at IC50 dose (Prostate cancer cells): 48% | effective dose (Prostate cancer cells): 20 µM | percentage of control at effective dose (Prostate cancer cells): 17% | value at effective dose (Prostate cancer cells): 7.3 ± 1.2 | IC50 (Breast cancer cells): 10 µM | effective dose (Breast cancer cells): 20 µM | percentage of control at IC50 dose (Breast cancer cells): 39% | percentage of control at effective dose (Breast cancer cells): 27% | value at effective dose (Breast cancer cells): 5.7 ± 0.6 | IC50 (Lung cancer cells): 10 µM | effective dose (Lung cancer cells): 20 µM | percentage of control at IC50 dose (Lung cancer cells): 45% | percentage of control at effective dose (Lung cancer cells): 36% | value at effective dose (Lung cancer cells): 11.7 ± 1.5 | IC50 (Melanoma cells): 10 µM | effective dose (Melanoma cells): 40 µM | percentage of control at IC50 dose (Melanoma cells): 54% | percentage of control at effective dose (Melanoma cells): 21% | IC50 (B-Lymphocyte cells): 10 µM | effective dose (B-Lymphocyte cells): 10 µM | percentage of control at IC50 dose (B-Lymphocyte cells): 29% | percentage of control at effective dose (B-Lymphocyte cells): 29% | value at effective dose (B-Lymphocyte cells): 8.0 ± 3.0 | IC50 (T-cells (Jurkat)): 10 µM | effective dose (T-cells (Jurkat)): 40 µM | percentage of control at IC50 dose (T-cells (Jurkat)): 45% | percentage of control at effective dose (T-cells (Jurkat)): 81% | value at effective dose (T-cells (Jurkat)): 409.3 ± 6.4

Cc1c(C)c2c(c(C)c1O)CC[C@@](C)(CCC[C@H](C)CCC[C@H](C)CCCC(C)C)O2 [α-Tocopherol]
time of appearance in the plasma [3]: > 2 h | Elimination of Half-life time (t1/2) [3, 6]: 4.99 ± 069^a h | Elimination rate constant (ke) [3, 6]: 0.237 ± 0.217^a h-1 | Plasma Peak Concentration (Cmax) [3, 6]: 1822.00 ± 48.24^a ng/mL | Time to achieve plasma peak (Tmax) [3, 6]: 6.00 h | Elimination of Half-life time (t1/2) [3, 7]: 4.91 ± 0.84^a h | Elimination rate constant (ke) [3, 7]: 0.084 ± 0.008^a,b h-1 | Plasma Peak Concentration (Cmax) [3, 7]: 1931.00 ± 92.54^b ng/mL | Time to achieve plasma peak (Tmax) [3, 7]: 6.00 h | Elimination of Half-life time (t1/2) [3, 8]: 3.58 ± 0.67^a h | Elimination rate constant (ke) [3, 8]: 0.081 ± 0.006^b h-1 | Plasma Peak Concentration (Cmax) [3, 8]: 2188 ± 147.61^c ng/mL | Time to achieve plasma peak (Tmax) [3, 8]: 5.46 ± 0.93 h | plasma tocol level [4, 9]: 1644 ± 59 ng/mL | plasma tocol level [4, 10]: 1817 ± 80 ng/mL | Tmax ([4]; 750 mg and 1000 mg doses of δ-tocotrienol): 6 h | plasma tocol level [4, 11]: 2080 ± 68 ng/mL | plasma tocol level [4, 12]: 2025 ± 66 ng/mL | plasma tocol level [4, 13]: 2002 ± 91 ng/mL | plasma tocol level [4, 14]: 2115 ± 92 ng/mL | plasma tocol level [4, 15]: 2231 ± 35 ng/mL | plasma tocol level [4, 16]: 2228 ± 22 ng/mL | plasma tocol level [4, 17]: 2754 ± 84 ng/mL | plasma tocol level [4, 18]: 2915 ± 35 ng/mL | plasma tocol level [4, 19]: 2406 ± 51 ng/mL | plasma tocol level [4, 20]: 2139 ± 61 ng/mL | Total tocols (sum of 0-8 h) [4, 21]: 13239 ng/mL | α-TTP mediated secretion from the liver into the circulatory system (affinity with α-TTP) [5]: 100%

CC(C)=CCC/C(C)=C/CC/C(C)=C/CC[C@]1(C)CCc2c(C)c(O)c(C)c(C)c2O1 [α-Tocotrienol]
time of appearance in the plasma [3]: > 2 h | Elimination of Half-life time (t1/2) [3, 6]: 2.62 ± 0.81^a h | Elimination rate constant (ke) [3, 6]: 1.234 ± 0.211^a h-1 | Plasma Peak Concentration (Cmax) [3, 6]: 139.91 ± 11.03^a ng/mL | Time to achieve plasma peak (Tmax) [3, 6]: 2.73 ± 0.65 h | Elimination of Half-life time (t1/2) [3, 7]: 2.89 ± 0.84^a h | Elimination rate constant (ke) [3, 7]: 0.201 ± 0.050^b h-1 | Plasma Peak Concentration (Cmax) [3, 7]: 204.91 ± 9.47^b ng/mL | Time to achieve plasma peak (Tmax) [3, 7]: 3.00 h | Elimination of Half-life time (t1/2) [3, 8]: 3.71 ± 0.29^b h | Elimination rate constant (ke) [3, 8]: 0.214 ± 0.009^b h-1 | Plasma Peak Concentration (Cmax) [3, 8]: 290.09 ± 9.84^c ng/mL | Time to achieve plasma peak (Tmax) [3, 8]: 3.00 h | plasma tocol level [4, 9]: 241 ± 16 ng/mL | plasma tocol level [4, 10]: 292 ± 39 ng/mL | plasma tocol level [4, 11]: 268 ± 13 ng/mL | plasma tocol level [4, 12]: 653 ± 42 ng/mL | plasma tocol level [4, 13]: 278 ± 7 ng/mL | plasma tocol level [4, 14]: 807 ± 49 ng/mL | plasma tocol level [4, 15]: 293 ± 11 ng/mL | plasma tocol level [4, 16]: 1125 ± 35 ng/mL | plasma tocol level [4, 17]: 223 ± 5 ng/mL | plasma tocol level [4, 18]: 375 ± 49 ng/mL | plasma tocol level [4, 19]: 86 ± 16 ng/mL | plasma tocol level [4, 20]: 309 ± 17 ng/mL | Elimination of Half-life time (t1/2) [4, 22]: 2.21 ± 0.18^a h | Elimination rate constant (ke) [4, 22]: 0.315 ± 0.188^a h-1 | Elimination of Half-life time (t1/2) [4, 23]: 2.15 ± 0.13^b h | Time to achieve plasma peak (Tmax) [4, 23]: 4.00^a h | Total tocols (sum of 0-8 h) ([4]; single dose 750 mg δ-tocotrienol): 1389 ng/mL | Total tocols (sum of 0-8 h) [4, 21]: 3561 ng/mL | α-TTP mediated secretion from the liver into the circulatory system (affinity with α-TTP) [5]: 12%

C=C1CC[C@H](O)C/C1=C/C=C1\CCC[C@]2(C)[C@@H]([C@H](C)CCCC(C)C)CC[C@@H]12 [Vitamin D3]
Fasting Glucose, Post-dose, percentage of control (pre-dose) in parentheses (people with T2DM; [24]): 95% | MDA, Post-dose (people with T2DM; [24]): 3.48 µmol/L | MDA, Post-dose, percentage of control (pre-dose) in parentheses (people with T2DM; [24]): 97% | hs-CRP, Post-dose (people with T2DM; [24]): 3.09 mg/L | hs-CRP, Post-dose, percentage of control (pre-dose) in parentheses (people with T2DM; [24]): 92% | Fasting Glucose, Post-dose (people with T2DM; serum, two capsules/d for 24-weeks (δ-tocotrienol 250 mg, vitamin D3 5000 IU, resveratrol 250 mg per capsule)): 7.16 mmol/L | Fasting HbA1c, Post-dose (people with T2DM; two capsules/d for 24-weeks): 8.19% | Fasting HbA1c, Post-dose, percentage of control (pre-dose) in parentheses (people with T2DM; two capsules/d for 24-weeks): 93% | HOMA-IR, Post-dose (people with T2DM; two capsules/d for 24-weeks): 4.74 | HOMA-IR, Post-dose, percentage of control (pre-dose) in parentheses (people with T2DM; two capsules/d for 24-weeks): 89%
